# Data: patent US20100280118A1, “Methods for treating substance dependence” (The Scripps Research Institute, priority 2007, published 2010)
# Marks after values point to notes of the source that are not given here.
# Experiments:
# [1] = test system: cue-reactive, alcohol-dependent individuals; assay: Cue reactivity study, 1 week gabapentin 1200 mg vs placebo, alcohol and affective cue-induced craving; format: in vivo, human
# Method: This Example describes the results of a study to examine the effectiveness of gabapentin 1200 mg for attenuating symptoms of protracted abstinence in a non treatment-seeking sample of cue-reactive, alcohol-dependent individuals. Subjects were 33 paid volunteers with current DSM-IV alcohol dependence and a strength of craving rating 1σ or greater for alcohol than water cues. Subjects were randomly assigned to gabapentin or placebo for 1-week and then participated in a within-subjects trial where each was exposed to standardized sets of pleasant, neutral, and unpleasant visual stimuli followed by alcohol or water cues. A key aspect of the study design is exposure to alcohol cues (sight and smell of the subject's favorite alcoholic beverage) without consumption. Alcohol consumption would be expected to mask the effects of any medication that targets symptoms of protracted abstinence, as either or both could attenuate such symptoms; the effects of alcohol and the drug to be tested would therefore be inextricably confounded. The design is therefore relatively novel in combining elicitation of craving while inducing both positive and negative affect (along with interaction effects) with non-consumptive alcohol cue exposure. As such it may be particularly well-suited for testing the effectiveness of pharmacological treatments intended to normalize the neurobiological imbalances associated with protracted abstinence in alcoholics.
# Subject enrollment: The study was conducted at the University of Miami School of Medicine, Miami, Fla. and approved by that institution's Institutional Review Board as conforming to the ethical standards of the 1964 Declaration of Helsinki. Subjects provided written informed consent prior to participation. Subjects were non treatment-seeking paid volunteers recruited primarily through advertisements, meeting the Diagnostic and Statistical Manual of Mental Disorders, 4th Edition (DSM-IV; American Psychiatric Association, 1994) criteria for current alcohol dependence, abstinent from alcohol on the day of the study, as verified by Breath Alcohol Concentration (BAC), not in acute withdrawal as verified by a Clinical Institute Withdrawal Assessments for Alcohol (CIWA-Ar; Sullivan et al., Br J Addict 84:1353-1357, 1989) score of <8, and meeting the definition of “cue reactive”. An individual was considered cue reactive if his or her “strength of craving” score under a neutral affect condition (see Study Overview below) was ≧1 standard deviation (3 VAS rating scale points; see measures discussion) greater for alcohol than for water cues during a mini cue reactivity session. This is similar to the criterion described by Rubonis et al. (J. Stud. Alcohol. 55:487-494, 1994) to classify cue reactors. Exclusionary criteria consisted of clinically significant medical or psychiatric disorders including depression, anxiety, or dependence on substances other than alcohol and nicotine.
# Study Overview and Experimental Design: Subjects meeting admission criteria were randomized to receive gabapentin 1200 mg or placebo. Because image-based affective cue reactivity was not as strong as we had anticipated, to improve statistical power we augmented the control group with untreated individuals from three otherwise-similar lab studies. Criteria for participation were the same in all cases. Dosages (matched in the placebo condition) were titrated as follows: 300 mg morning on day 1, 300 mg morning and also evening on day 2, 300 mg morning, midday and evening on day 3, and 300 mg morning and midday followed by 600 mg evening for days 4-7. On day 7 of double-blind medication, overall measures of mood, sleep, and craving were assessed. This one-week interval of chronic dosing is intended to model and predict the critical first week on medication in a Phase II or III clinical trial, when participants' experiences with sleep and mood, or side effects, can dramatically affect treatment adherence and risk for dropout. […]
# [2] = test system: non treatment-seeking volunteers with current cannabis and alcohol dependence; assay: Pilot laboratory study, one week gabapentin 1200 mg/d vs placebo; format: in vivo, human
# Method: This Example describes treatment of subjects suffering from cannabis dependence with gabapentin. Subjects with DSM-IV cannabis dependence were enrolled in a clinical study of treatment with gabapentin. Earlier, in a pilot laboratory study, the safety and efficacy of gabapentin 1200 mg/d in non treatment-seeking volunteers with current cannabis and alcohol dependence involving were examined in one week of chronic dosing with double-blind, randomly assigned active drug or placebo. […] The results lend support to: 1) the safety and tolerability of our drug titration schedule and the steady state dose of gabapentin 1200 mg/d in outpatients with cannabis dependence; 2) the efficacy of gabapentin 1200 mg/d in treating disturbed sleep, a key symptom of cannabis withdrawal; and 3) our ability to recruit a sample of subjects with cannabis dependence who are willing to participate in clinical research involving medication. Based on the results from this pilot study, subjects with only cannabis dependence were then recruited and treated with gabapentin, as detailed below.
# [3] = test system: outpatients with alcohol dependence; assay: 12-week double-blind, placebo-controlled, dose-ranging study of gabapentin 900 or 1800 mg/day in alcohol dependence; format: in vivo, human; settings: for Cohen's d, drinks per drinking day: interim analysis
# Method: This example describes the study of gabapentin treatment of subjects suffering from alcohol dependence. A 12-week, double-blind, placebo-controlled, dose-ranging study was conducted with random assignment to gabapentin 900 mg/day, 1800 mg/day, or placebo. Subjects are outpatients with alcohol dependence. The 3 pharmacological treatment conditions were administered in conjunction with manual-guided behavioral counseling that incorporates strategies to increase motivation, abstinence, and medication compliance. Counseling and research assessments occurred weekly throughout the 12-week treatment phase. Post-treatment assessments occurred at Weeks 13, 24, and 36.
# The criteria for inclusion are as follows: (1) Males or females over 18 years of age; (2) Meets DSM-IV criteria for current alcohol dependence; (3) Seeking research-based outpatient treatment for alcohol problems; (4) Abstinent from alcohol a minimum of 3 days to a maximum of 30 days at the time of randomization; and (5) Willing to attend 12 weekly study visits and 3 follow-up visits. The criteria for exclusion are as follows: (1) Currently meets DSM-IV criteria for dependence on substances other than alcohol, nicotine or caffeine; (2) Significant medical disorders that will increase potential risk or interfere with study participation, e.g., plasma […] >1.4 mg/dL; (3) Sexually active female subjects with childbearing potential who are pregnant, nursing or refuse to use a reliable method of birth control; (4) Meets DSM-IV criteria for a major AXIS I disorder other than alcohol dependence, including depressive and anxiety disorders, and is in need of, or currently undergoing, pharmacotherapy; (5) Inability to understand and/or comply with the provisions of the protocol and consent form; (6) Treatment with an investigational drug during the previous month; (7) Sensitivity to study drug as evidenced by adverse drug experiences with gabapentin or its ingredients; (8) Ongoing treatment with disulfuram (Antabuse), naltrexone (ReVia®), acamprosate (Campral®) or other medications that may affect study outcomes, e.g., anticonvulsants; (9) More than one month of abstinence prior to randomization; (10) Subjects who require medicated detoxification (Note: Subjects may proceed with study evaluation after completion of detoxification); (11) Subjects for whom treatment of alcoholism is being mandated by a legal authority; (12) Unable to identify at least one collateral informant to verify drinking status at baseline and monthly during study, and to assist in tracking subjects for follow-up assessments; or (13) Subjects who plan to move out of the geographic area served by the Clinic prior to study completion.
# Primary outcome of the treatment was assesses with the following measures. Timeline Followback Interview (TLFB; Sobell and Sobell, 1992) provides quantity and frequency estimates of alcohol intake at baseline and throughout the study using a standard drinks format (Research Nurse, 20 minutes at screening and Week 24 and 36 follow-up visits, 5 minutes at weekly study visits). […] Therefore, TLFB data is supported by weekly breathalyzers and monthly collateral informant reports and GGT. If unresolved inconsistencies between sources occur, then the most negative outcome will be assumed accurate.
# Secondary outcome of the treatment was assessed with the following measures. Alcohol Craving Questionnaire-Short Form (ACQ-SF; Singleton et al., 1994) provides a quick assessment of current drinking urges, difficulty resisting urges and anticipation of positive outcome or relief from negative affective state by drinking (baseline and every study visit, self report, 1-2 minutes). Beck Depression Inventory (BDI; Beck et al., 1961) is a self-rating of severity of depressive symptoms (baseline and every study visit, 5 minutes). Gamma glutamyl transferase (GGT) is used as a biochemical marker of alcohol abstinence or relapse. […]
# [4] = test system: outpatients with current cannabis dependence; assay: 12-week randomized, double-blind, placebo-controlled trial of gabapentin 1200 mg/d in cannabis dependence
# [5] = gabapentin 1200 mg vs placebo, day 7, alcohol vs water cue, 0-20 rating
# [6] = gabapentin 1200 mg vs placebo, day 7, alcohol vs water cue, VAS 0-20
# [7] = gabapentin 1200 mg vs placebo, day 7, negative vs neutral affect cue, 0-20 rating
# [8] = gabapentin 1200 mg vs placebo, day 7, negative vs neutral affect cue, VAS 0-20
# [9] = gabapentin 1200 mg vs placebo, day 7, positive vs neutral affect cue, 0-20 rating
# [10] = gabapentin 1200 mg vs placebo, day 7, positive vs neutral affect cue, VAS 0-20
# [11] = % of subjects, gabapentin 1200 mg/d
smiles,measurement,setting,value
"NCC1(CC(=O)O)CCCCC1 [gabapentin, (1-aminomethyl)-1-cyclohexaneacetic acid]",symptoms generating the drug-placebo difference in symptom counts,"[1]; 1 week, gabapentin 1200 mg vs placebo","dizziness (χ^2(1)=6.1, p<0.02) and fatigue"
same,total symptom counts over the week on medication (mean),"[1]; SAFTEE-G, 1 week, gabapentin 1200 mg, standard deviation 2.7, n=30 assessed",3.3
same,"Bev x Gaba, Feel strong emotion (estimated model coefficient)",[1]; [5],1.15
same,"Bev x Gaba, Like beverage (estimated model coefficient)",[1]; [5],−0.25
same,"Bev x Gaba, SAM Arousal (estimated model coefficient)",[1]; [5],−1.79
same,"Bev x Gaba, SAM Dominance (estimated model coefficient)",[1]; [5],0.81
same,"Bev x Gaba, SAM Valence (estimated model coefficient)",[1]; [5],3.28*
same,"Bev x Gaba, Craving Difficult to turn down (estimated model coefficient)",[1]; [6],−1.31^††
same,"Bev x Gaba, Craving Drink Now (estimated model coefficient)",[1]; [6],−1.96^†
same,"Bev x Gaba, Craving Make Things Perfect (estimated model coefficient)",[1]; [6],0.23
same,"Bev x Gaba, Craving Strength (estimated model coefficient)",[1]; [6],−2.16^†
same,"Aff− x Gaba, Feel strong emotion (estimated model coefficient)",[1]; [7],−1.29
same,"Aff− x Gaba, Like beverage (estimated model coefficient)",[1]; [7],0.98
same,"Aff− x Gaba, SAM Arousal (estimated model coefficient)",[1]; [7],−4.92*
same,"Aff− x Gaba, SAM Dominance (estimated model coefficient)",[1]; [7],1.30
same,"Aff− x Gaba, SAM Valence (estimated model coefficient)",[1]; [7],1.25
same,"Aff− x Gaba, Craving Difficult to turn down (estimated model coefficient)",[1]; [8],1.26
same,"Aff− x Gaba, Craving Drink Now (estimated model coefficient)",[1]; [8],0.58
same,"Aff− x Gaba, Craving Make Things Perfect (estimated model coefficient)",[1]; [8],0.20
same,"Aff− x Gaba, Craving Strength (estimated model coefficient)",[1]; [8],0.96
same,"Aff+ x Gaba, Feel strong emotion (estimated model coefficient)",[1]; [9],−1.08
same,"Aff+ x Gaba, Like beverage (estimated model coefficient)",[1]; [9],−0.04
same,"Aff+ x Gaba, SAM Arousal (estimated model coefficient)",[1]; [9],−3.22^†
same,"Aff+ x Gaba, SAM Dominance (estimated model coefficient)",[1]; [9],0.80
same,"Aff+ x Gaba, SAM Valence (estimated model coefficient)",[1]; [9],0.21
same,"Aff+ x Gaba, Craving Difficult to turn down (estimated model coefficient)",[1]; [10],−1.34^††
same,"Aff+ x Gaba, Craving Drink Now (estimated model coefficient)",[1]; [10],0.16
same,"Aff+ x Gaba, Craving Make Things Perfect (estimated model coefficient)",[1]; [10],0.44
same,"Aff+ x Gaba, Craving Strength (estimated model coefficient)",[1]; [10],0.25
same,ARCI scores on five drug-of-abuse groups (abuse potential),"[1]; gabapentin vs. placebo, n=28",no statistically significant differences
same,"CBC, LFT, or urinalysis values",[2],no change from baseline
same,adverse drug complaints,[2],no adverse drug complaints of more than mild severity
same,BDI total score,[3]; 900 mg/d vs placebo,no significant effect
same,"sleep disturbance (PSQI), effect size d","[3]; 900 mg/d vs placebo, p<0.01",−0.50
same,"daytime dysfunction (PSQI), effect size d","[3]; 900 mg/d vs placebo, p<0.05",−0.27
same,"Cohen's d, drinks per drinking day",[3]; 900 mg/d vs placebo,0.82
same,"negative affective symptoms (BDI), effect size d","[3]; 1800 mg/d relative to placebo, p<0.05",0.33
same,"daytime dysfunction (PSQI), effect size d","[3]; 1800 mg/d vs placebo, p<0.01",−0.43
same,"Cohen's d, drinks per drinking day",[3]; 1800 mg/d vs placebo,0.71
same,time the beneficial effect was sustained after completing treatment,[3]; complete study (n=150),up to 12 weeks
same,deaths or serious drug-related adverse events,[3]; throughout the study,no deaths or serious drug-related adverse events
same,subjective sleep quality or PSQI summary score,"[3]; treatment vs placebo, trend for 900 mg/d, p<0.08",no significant effect
same,deaths or terminations due to drug-related adverse events,[4]; 12 weeks,no deaths or terminations due to drug-related adverse events
same,Adverse event: Abdominal Pain,[4]; [11],25%
same,Adverse event: Decreased Appetite,[4]; [11],10%
same,Adverse event: Depression,[4]; [11],30%
same,Adverse event: Dizziness,[4]; [11],0%
same,Adverse event: Fatigue,[4]; [11],15%
same,Adverse event: Headache,[4]; [11],20%
same,Adverse event: Increased Appetite,[4]; [11],15%
same,Adverse event: Nausea,[4]; [11],15%
same,Adverse event: Nervousness,[4]; [11],25%
same,Adverse event: Other,[4]; [11],5%
same,average severity of AE's,"[4]; both treatment groups, 2=mild",2.0±0.7
same,number of AE's complained of per subject,"[4]; gabapentin 1200 mg/d, 12 weeks, p=0.11 vs placebo",4.0±6.7
